Results on 1 substance are retold here after patent publication US20090105149A1, “Compounds comprising lpa” (ENKAM PHARMACEUTICALS A/S, priority 2003, published 2009).

Marks after values point to notes of the source that are not given here.

Experiment [1] concerns cerebellar granule neurons (CGN). The experiment in a line: TUNEL assay, DNA-fragmentation in KCl-deprived CGN. Type of experiment: cell-based, rat. To be noted: at 10-15 μg/ml; relative to apoptotic neurons without treatment. On the procedure:
The number of neurons with fragmented DNA was measured using the Apo-Alert apoptosis detection kit and the fraction of TUNEL-positive neurons was estimated by counting. Results from at least four independent experiments are shown as percentage of cells showing DNA-fragmentation relative to the total number of cells ±SEM with control cultures in low KCl set at 100%. • (a) Effect of depriving CGN cultures of high KCl on number of cells undergoing apoptosis. • (b) Effect of FGLd in apoptosis-induced CGN cultures.
24 hours after induction of apoptotic cell death, the cultures were fixed and the extent of DNA-fragmentation was measured using the ApoAlert apoptosis detection kit, essentially as described by the manufacturer. Briefly, blunt ends of double-stranded DNA molecules were enzymatically labelled with fluorescein-dUTP, and all the neurons were stained with propidium iodide at a concentration of 750 ng/ml. Images of at least 200 neurons from each group in each experiment were obtained using a BioRad Radiance laser scanning system 2000 coupled to a Nikon Eclipse TE 200 confocal microscope equipped with an oil immersion 60×1.4 NA objective (Nikon, Tokyo, Japan). The fraction of TUNEL-positive neurons was determined by counting.

The test system of another experiment is Erk1/2. The experiment is described as follows: PACE assay, phosphorylation of Erk1/2 in CGN. Format: cell-based, rat. On the procedure: The total number of neurons was estimated using crystal violet staining. Results from at least three independent experiments are expressed as percentage ±SEM with untreated cultures set at 100%. *p<0.05 and **p<0.01 when compared to the controls.
Detection of phosphorylated Erk1/2 and Akt relative to the total number of CGN is carried out according to Versteeg et al. (2000) FEBS Lett. 465:69-73. For the experiments CGN were plated at a density of 290,000 cells/cm^2 in poly-L-lysine coated 96-well microtiter plates. […] 24 hours after plating, Ara-C was added to the cultures as described above. After 72 hours of incubation, half of the medium was replaced with Neurobasal-A medium containing the peptide to be tested. For the Erk1/2 phosphorylation assay, the cultures were further incubated for 0-90 minutes, centrifuged at 70 g for 8 minutes, fixed with 4% (v/v) formaldehyde and immunostained using primary phospho-p42-44 rabbit antibodies and peroxidase-conjugated anti-rabbit secondary antibodies. For the detection of phosphorylated Akt, the cultures were further incubated for 10 or 30 minutes, centrifuged at 70 g for 8 minutes, fixed with 4% (v/v) formaldehyde and immunostained using polyclonal antibodies against Akt phosphorylated at Ser473 and peroxidase-conjugated secondary antibodies. […]

The subject of another experiment is hippocampal neurons. The experiment in a line: Synapse formation, synaptophysin/GAP-43 double-immunostaining. Type of experiment: cell-based, rat. On the procedure: The effect of FGLd on synapse formation was further evaluated using double-immunostaining of neurites and synapses in primary embryonic (E19) hippocampal neurons grown in culture for 13 days. Cells were incubated with FGLd for 48 or 96 hours, before fixation and immunostaining. The synapses were detected by antibodies against synaptophysin and the neyrites were labelled by antibodies against the growth-associated protein-43 (GAP-43—also called B-50 or F1). The immunostaining was visualised and quantified by confocal fluorescence microscopy as described by Rønn et al. (2000) (op. cit.).

Experiment [2] relates to dissociated hippocampal neurons. The experiment is described as follows: OGD, metabolic activity (MTS) in dissociated hippocampal cell cultures. Format: cell-based, rat. An excerpt: (§1) In the present study it was investigated the effect of the FGL peptide on synaptic plasticity, neuronal function and vulnerability following oxygen and glucose deprivation (OGD) in organotypic hippocampal neuronal slice cultures (OHSC) from 7-day-old Wistar rats according to method of Stoppini et al. (1991) Neurosci Methods. 37:173-82 and primary cultures of dissociated hippocampal neurons from 1-day-old rats according to method of Maar et al. (1997) J Neurosci Res. 47:163-72. Primary cell cultures were maintained for 11-12 days and OHSC for 12-14 days prior to adding FGLd.
The primary cell cultures and OHSC were exposed to OGD for 10 and 20 minutes. Following OGD, the cultures were again supplied with oxygen and glucose and analysed at 1, 4 or 24 hour time point after introduction of OGD exposure. FGLd (or the control peptide FGLc) was added 24 hr before, immediately, or 1 hr or 24 hr after OGD. When administered prior to OGD, FGLd was removed from the medium when introducing OGD. In some cases, the slice cultures were treated with FGLd only at 4 hr after OGD. In addition, the FGFR inhibitor, SU5402 (25 μM), was added together with FGLd in some of the set-ups.
In hippocampal neuronal cultures, FM 1-43 staining was used to evaluate pre-synaptic function (described above). Cell viability in both primary cell cultures and OHSC was measured using the […] [3-(4,5-dimethylthiazol-2-yl)-2,5-diphenyltetrazolium bromide] assay according to Malich et al, (1997) Toxicology. 124:179-92. In, addition, cell viability in OHSC was measured using propidium iodide (PI) staining according to Laake et al. (1999) Brain Res Brain Res Protoc. 4:173-84.

Experiment [3] deals with organotypic hippocampal neuronal slice cultures (OHSC). The experiment in a line: OGD, metabolic activity (MTS) in organotypic hippocampal slice cultures. Type of experiment: cell-based, rat.
Text: as §1
The primary cell cultures and OHSC were exposed to OGD for 10 and 20 minutes. Following OGD, the cultures were again supplied with oxygen and glucose and analysed at 1, 4 or 24 hour time point after introduction of OGD exposure. FGLd (or the control peptide FGLc) was added 24 hr before, immediately, or 1 hr or 24 hr after OGD. […]
In hippocampal neuronal cultures, FM 1-43 staining was used to evaluate pre-synaptic function (described above). Cell viability in both primary cell cultures and OHSC was measured using the […] [3-(4,5-dimethylthiazol-2-yl)-2,5-diphenyltetrazolium bromide] assay according to Malich et al, (1997) Toxicology. […] In, addition, cell viability in OHSC was measured using propidium iodide (PI) staining according to Laake et al. (1999) Brain Res Brain Res Protoc. […]

Another experiment has as its system rats. The experiment is described as follows: Open Field test in normal rats. Format: in vivo, rat. The note with it: additional experiments.
For experiment [4], the system named is cerebellar granule neurons (CGN). The experiment is described as follows: Survival of CGN induced to undergo apoptosis by low KCl. The note with it: for Neuronal Survival (% of Control): Low K+ (5 mM).
Experimental: Cerebella granular meurons (CGN) (e and f) from postnatal day 7 rats were grown at a density of 100,000 cells/cm^2 for 7 days on poly-L-lysine coated microtiter plates in the medium containing 40 mM KCl, then the medium was substituted to a 5 mM KCl containing medium supplemented with various concentrations of FGLd.
For the experiments cerebellar tissue was dissected in modified Krebs-Ringer solution kept on ice, and treated as described for the hippocampal neurons above. All cell cultures were incubated at 37° C. in a humidified atmosphere containing 5% CO2.
Primary cultures of CGN were plated at a density of 100,000 cells/cm^2 on poly-L-lysine coated 8-well permanox slides in Neurobasal-A medium (Gibco, BRL) supplemented with 2% (v/v) B27, 0.5% (v/v) glutamax, 100 U/ml penicillin, 100 μg/ml streptomycin and KCl, making the final concentration of KCl in the medium 40 mM. 24 hours after plating, cytosine-β-D-arabinofuranoside (Ara-C; Sigma-Aldrich) was added to a final concentration of 10 μM to avoid proliferation of glial cells, after which the neurons were allowed to differentiate for further six days at 37° C. Apoptotic cell death was induced by washing twice and changing the medium to Basal Medium Eagle (BME; Gibco BRL) supplemented with 1% (v/v) glutamine, 100 U/ml penicillin and 100 μg/ml streptomycin, 3.5 g D-glucose/l and 1% (v/v) sodium pyruvate (Gibco BRL) together with various concentrations of peptide. Thereby the concentration of potassium in the cultures was reduced to 5 mM KCl. Two days after induction of apoptosis, the cells were fixed with 4% formaldehyde and stained with Hoechst 33258 as described for the survival assay employing hippocampal neurons.

For the substance “FGLd: MAP-type dendrimer of FGL; dendrimeric tetramer of the FGL peptide (EVYVVAENQQGKSKA)”, the “reduction of number of apoptotic CGN (DNA-fragmentation), maximal rescue” value in experiment [1] turned out to be 40%. Further, the “phosphorylation of Erk1/2” value with Erk1/2 (5 μg/ml) is “unable to induce phosphorylation of Erk1/2”; with Erk1/2 (10 μg/ml, from 10 to at least 90 minutes, control cultures = 100%), 115-120%. Further, in the experiment with hippocampal neurons (20 μg/ml for 48 and 96 hours), the “increase in the number of synaptophysin positive spots per 100 μm length of neurite” value is given as “approximately 20%”. For the same substance, the “number of synaptophysin positive spots per 100 μm length of neurite” value was found to be 2.96 with hippocampal neurons (20 μg/ml for 48 hours, control 2.40) and 3.24 in the experiment on hippocampal neurons (20 μg/ml for 96 hours, control 2.73). The “metabolic activity (MTS), treatment alone” value in experiment [2] (no OGD) and in experiment [3] (no OGD) was “led to an increase in metabolic activity” in each case. In addition, the “metabolic activity (MTS) after 20 min OGD” value in experiment [2] (treated 24 hours before or immediately after OGD) is recorded as “the effect of OGD on metabolic activity was diminished”. In experiment [3] (treated 24 hours prior to OGD, 1 h and 24 h after OGD), the “metabolic activity (MTS) after OGD” value is given as “caused a normalization of the metabolic activity”. For the same substance, the “emotional or locomotor behaviour” value in the experiment with rats is listed as “did not influence emotional or locomotor behaviour”. In addition, the “Neuronal Survival (% of Control)” value is listed as 131%* % of Control in experiment [4] (CGN (PND 3-4), 1 μg/mL); 110%* % of Control in experiment [4] (CGN (PND 3-4), 5 μg/mL); 132%* % of Control in experiment [4] (CGN (PND 3-4), 10 μg/mL); 117%** % of Control in experiment [4] (CGN (PND 3-4), 20 μg/mL); 175%* % of Control in experiment [4] (CGN (PND 7-8), 20 μg/mL). For the same substance, in experiment [4] (at 1-10 μg/ml, controls grown at low KCl = 100%), the “maximal neuroprotection of CGN” value was found to be 135%.
